Measured values taken from BindingDB's records for doi:10.1021/acs.jmedchem.6b01507 (East China University of Science and Technology, 2017).

Target: T1, Leukotriene A-4 hydrolase (Homo sapiens, UniProt P09960)
T1 sequence (P09960 whole entry): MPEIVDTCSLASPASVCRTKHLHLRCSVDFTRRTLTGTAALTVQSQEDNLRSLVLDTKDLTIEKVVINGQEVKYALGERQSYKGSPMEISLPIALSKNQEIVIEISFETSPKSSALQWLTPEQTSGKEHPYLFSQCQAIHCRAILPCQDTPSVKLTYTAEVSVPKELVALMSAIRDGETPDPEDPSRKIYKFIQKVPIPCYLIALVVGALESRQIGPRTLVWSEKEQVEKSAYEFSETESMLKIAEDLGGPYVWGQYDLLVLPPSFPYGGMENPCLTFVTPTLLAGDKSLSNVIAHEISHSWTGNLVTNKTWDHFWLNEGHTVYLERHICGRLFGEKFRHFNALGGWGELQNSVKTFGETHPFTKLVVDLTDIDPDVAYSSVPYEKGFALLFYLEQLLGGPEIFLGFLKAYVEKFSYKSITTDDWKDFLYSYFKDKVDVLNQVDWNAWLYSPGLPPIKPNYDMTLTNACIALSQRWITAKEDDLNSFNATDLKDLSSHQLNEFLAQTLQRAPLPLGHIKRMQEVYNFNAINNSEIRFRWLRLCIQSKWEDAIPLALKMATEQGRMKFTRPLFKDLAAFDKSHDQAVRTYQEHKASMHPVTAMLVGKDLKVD
Assay: Inhibition of recombinant human LTA4H Epoxide Hydrolase expressed in Escherichia coli BL21 (DE3) pLysS preincubated for 10 mins followed by addition of LTA4 as substrate measured after 15 mins by reverse-phase HPLC analysis

CN(C)Cc1cccc(S(=O)(=O)n2ccc(/C=C/C(=O)NO)c2)c1
IC50: > 10 µM
